The text below walks through data of patent US20200368315A1, “ANTIMICROBIAL PEPTIDES AND ADMIXTURES THEREOF SHOWING ANTIMICROBIAL ACTIVITY AGAINST GRAM-NEGATIVE PATHOGENS” (priority 2017, published 2020).

A word on the IC50: it is the point on the concentration scale where inhibition reaches its midpoint. Read a high IC50 as a need for much substance.

Values after ≈ are worked out from the molar mass of the structure shown.

Series [1] deals with Klebsiella pneumoniae ATCC BAA-2524. Kind of series: microbe, parasite or virus in culture. The settings on record: ATCC BAA-2524. On the procedure:
(§1) Testing was performed according to CLSI (Clinical Laboratory Standards Institute) guidelines. Read out of the study was determination of MIC—minimal inhibitory concentration expressed in μg/mL.
(§2) Out of these PBS solutions, 76.8 μL was transferred to 1423.2 μL of MH media in deep well for testing compound alone. […] Out of these working solutions 100 μL were transferred to wells in the third column of 96-well assay plates. Assay plates were previously filled with 50 μL of MH media in all wells except for the wells in the third column.
(§3) Microorganisms used were all revived from skim milk storage at −70° C. by plating them on MH agar plates. The following day a single colony of each microorganism was again streaked on fresh agar plates. The next day, using direct colony suspension method, broth solutions that achieve turbidity equivalent to 0.5 McFarland standard for each microorganism were prepared. […] Out of these suspensions, actual inoculums were prepared by diluting them 100× with MH media giving final microorganism count of 2-8×10^5 CFU/mL. For each strain of microorganisms, 20 mL of these inoculum solutions were prepared. From the second to the twelfth column of 96-well plates, 50 μL of these solutions were transferred per well. To the first column, 50 μL per well of pure growth media was added. In this manner the first column was used as sterility control of media used, the second column was used as control of microorganism's growth and the rest of the plate was used for MIC determination. All plates were incubated for 16-24 h at 37° C.
(§4) MIC value was determined by visual inspection of bacterial growth within 96-well plates. The first column in which there was no visible growth of bacteria was determined as MIC value for peptide or combination tested in that particular row.

The test system of series [2] is Pseudomonas aeruginosa ATCC BAA-2108. Kind of series: microbe, parasite or virus in culture. The settings on record: ATCC BAA-2108. Here is the method: as §1, §2, §3, §4
Series [3] has as its system Pseudomonas aeruginosa B1954, clinical isolate. The experiment in a line: microbe, parasite or virus in culture. To be noted: B1954, clinical isolate. On the procedure: as §1, §2, §3, §4
Series [4] relates to Acinetobacter baumannii B2026, clinical isolate. Kind of series: microbe, parasite or virus in culture. To be noted: B2026, clinical isolate. Here is the method:
as §1, §2, §3, §4

For series [5], the system named is Escherichia coli ATCC BAA-2452. Kind of series: microbe, parasite or virus in culture. To be noted: ATCC BAA-2452. Here is the method:
as §1, §2, §3, §4

For series [6], the system named is Escherichia coli B1927, clinical isolate. Kind of series: microbe, parasite or virus in culture. The settings on record: B1927, clinical isolate. Here is the method:
as §1, §2, §3, §4

Series [7] deals with Klebsiella pneumoniae B1945, clinical isolate. The experiment in a line: microbe, parasite or virus in culture. The settings on record: B1945, clinical isolate. On the procedure:
as §1, §2, §3, §4

The subject of series [8] is Acinetobacter baumannii ATCC BAA-1605. Kind of series: microbe, parasite or virus in culture. To be noted: ATCC BAA-1605. Here is the method: as §1, §2, §3, §4
The nature of the next series: in vitro. The settings on record: human. On the procedure:
(§5) ATP levels were measured by adding 50 μL of CellTiter-Glo reagent to each well and after 5 minutes of incubation luminescence was measured with SpectraMax i3.
(§6) 96-well plates were seeded with HEK293 cells at concentration of 30,000 cells per well in 100 μL of DMEM growth media supplemented with 1% NEAA and 10% FBS. Border wells were filled with 100 μL of sterile PBS. The next day compounds were added to cells. Compounds were first 2× diluted in 96-well V-bottom plate in PBS. After that compounds were mixed with media in 96-deep-well plate for final concentrations. Growth media from 3 plates was aspirated and replaced with 100 μL of prepared compounds. Compounds were tested in duplicate. ATP levels were measured by adding 50 μL of CellTiter-Glo reagent to each well and after 5 minutes of incubation luminescence was measured with SpectraMax i3. […] The potential effects were then calculated and presented as IC50 values (μg/mL).

The test system of series [9] is Pseudomonas aeruginosa ATCC 27853. Kind of series: microbe, parasite or virus in culture. It counts as cell-based. The settings on record: ATCC 27853. On the procedure:
as §1, §2, §3, §4

In series [10] the test system is Acinetobacter baumannii ATCC 17978. Kind of series: microbe, parasite or virus in culture. It counts as cell-based. The settings on record: ATCC 17978. Here is the method:
as §1, §2, §3, §4

The test system of series [11] is Escherichia coli ATCC 25922. The experiment in a line: microbe, parasite or virus in culture. To be noted: ATCC 25922. Type of series: cell-based. On the procedure:
as §1, §2, §3, §4

Series [12] deals with Klebsiella pneumoniae ATCC 700603. Kind of series: microbe, parasite or virus in culture. It counts as cell-based. To be noted: ATCC 700603. On the procedure:
as §1, §2, §3, §4

The test system of another series is E. coli LMG15862. The experiment in a line: microbe, parasite or virus in culture. Type of series: cell-based, Escherichia coli. The settings on record: LMG15862. The essentials: (§7)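 Bacteria grown in LB broth or on LB agar at 37° C, then diluted 1:100 in MHB to give 5*10^5 CFU/mL final. Compounds were halved serially across the plate and inoculated. Visible growth was then scored, and the lowest inhibitory concentration was taken as MIC.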

For the next series, the system named is HEK293 cells. The experiment in a line: in vitro. Here is the method: as §5, §6
A further series has as its system E. aerogenes LMG 02094. Kind of series: microbe, parasite or virus in culture. It counts as cell-based, Enterobacter aerogenes. The settings on record: LMG 02094. In a few lines: as §7
The next series has as its system A. baumannii LMG01041. Kind of series: microbe, parasite or virus in culture. It counts as cell-based, Acinetobacter baumannii. The settings on record: LMG01041. The essentials:
as §7

The test system of the next series is L. lactis MG1363. The settings on record: MG1363.
Series [13] concerns human red blood cells (HRBc). The experiment in a line: Hemolytic test. To be noted: red cells of human, 1 h. On the procedure:
Fresh human red blood cells (HRBc) were used for the hemolytic tests. After incubation with different concentrations of test compounds at 37° C. for 1 hour, the absorbance of the supernatant were measured.

With `CC[C@@H](C)[C@@H](NC(=O)[C@@H](CCCNC(=N)N)NC(=O)[C@@H](CCCNC(=N)N)NC(=O)[C@@H](Cc1ccccc1)NC(=O)[C@@H](CC(C)C)NC(=O)[C@@H](CCCNC(=N)N)NC(=O)[C@H](N)CCCNC(=N)N)C(=O)N[C@H](CC(C)C)C(=O)N[C@H](CCCNC(=N)N)C(=O)N[C@H](Cc1c[nH]c2ccccc12)C(=O)N[C@H](CC(C)C)C(N)=O` [D6], the MIC came to 4 µg/mL in series [1]; 8 µg/mL in series [2]; 4 µg/mL in series [3]; 4 µg/mL in series [4]; 2 µg/mL in series [5]; 2 µg/mL in series [6]. For the same compound, the MIC in series [7] worked out at 8 µg/mL; in series [8], 8 µg/mL; in series [9] it was 4 µg/mL; in series [10] it was 2 µg/mL; in series [11], 2 µg/mL; in series [12], 4 µg/mL. For the same compound, the IC50 in “in vitro” is 52.1 µg/mL.
On to `CC[C@@H](C)[C@@H](NC(=O)[C@H](N)CCCNC(=N)N)C(=O)N[C@@H](C(=O)N[C@H](CCC(N)=O)C(=O)N[C@H](CCCNC(=N)N)C(=O)N[C@@H](C(=O)N[C@H](CCCCN)C(=O)N[C@H](CCCCN)C(=O)N[C@H](Cc1c[nH]c2ccccc12)C(=O)N[C@H](CC(C)C)C(=O)N[C@H](CCCNC(=N)N)C(N)=O)[C@H](C)CC)C(C)C` [GNP-D8], for which the MIC value in the series on E. coli LMG15862 was 4 µM (≈ 5.98 µg/mL); in series [1] it was greater than 85.62 µM; in [2], greater than 85.62 µM; in [3] it was 85.62 µM; in series [4] it was 10.7 µM; in series [5], 5.35 µM. Moreover, the MIC value in series [8] was determined as 10.7 µM; against E. aerogenes LMG 02094 it was 32 µM (≈ 47.8 µg/mL); in the series with A. baumannii LMG01041, 8 µM (≈ 12 µg/mL). In the series “in vitro”, the 50% inhibitory concentration (IC50) is no less than 42.8 µM. In the series with HEK293 cells, the “Effect on ATP levels” value was “do not affect the ATP levels”. The “MIC value of antimicrobial compounds alone” value with L. lactis MG1363 was 16 µM. The “HC50 (hemolytic activity)” value in [13] was greater than 200 µM.
On to `CC[C@@H](C)[C@@H](NC(=O)[C@H](N)CCCNC(=N)N)C(=O)N[C@@H](C(=O)N[C@H](CCC(N)=O)C(=O)N[C@H](CCCNC(=N)N)C(=O)N[C@@H](C(=O)N[C@H](CCCCN)C(=O)N[C@H](CCCCN)C(=O)N[C@H](Cc1c[nH]c2ccccc12)C(=O)N[C@H](CC(C)C)C(=O)N[C@H](CCCNC(=N)N)C(N)=O)[C@H](C)CC)C(C)C` [D8], for which the MIC in [1] was greater than 128 µg/mL; in series [2] it was greater than 128 µg/mL; in series [3], 128 µg/mL; in series [4] it was 16 µg/mL; in series [5] it was 8 µg/mL; in [6] it was 4 µg/mL. Besides, the MIC in series [7] is 32 µg/mL; in series [8], 16 µg/mL; in series [9], 64 µg/mL; in series [10], 16 µg/mL; in [11], 8 µg/mL; in series [12], greater than 128 µg/mL. This compound had an IC50 in the series “in vitro” greater than 64 µg/mL.
